pEC50: −log10 of the molar value. Structures can show the parent of a compound that is named as a salt. Where two headings read alike, the source gives them in different places. *1 amine or outer side, *2 acyl side, *3 side chain or, on linkers, in order; H or OH if unused. Where a SMILES comes first, the peptide text is derived from it. Bridges are numbered along the chain shown (N, C = ends). [ ]: non-standard residue; d: D form. The star is where a group is joined. pTerphenylCO(4''-OnC5H11) = CCCCCOc1ccc(-c2ccc(-c3ccc(C(=O)*)cc3)cc2)cc1; Orn(4R-OH,5R-OH) = O=C([C@H](C[C@@H](O)[C@@H](O)N[*:3])N[*:1])[*:2]; hTyr(3S-OH,4S-OH) = N[C@H](C(=O)O)[C@H](O)[C@@H](O)c1ccc(O)cc1; Pro(3S-OH,4S-Me) = C[C@H]1CN[C@H](C(=O)O)[C@H]1O; Hyp = O=C(O)[C@@H]1C[C@@H](O)CN1
Legend:
[1] = system: SARS-CoV-2 (USA_WA1/2020); test: microbe, parasite or virus in culture; type: cell-based; details: for pEC50: read-out: CPE EC50; for EC50: Severe acute respiratory syndrome coronavirus 2, Vero C1008, read-out: CPE EC50 (uM)
in vitro = details: African green monkey
[2] = Severe acute respiratory syndrome coronavirus 2, Vero C1008, SARS-CoV-2 CPE assay, Vero E6 cells, confirmed anti-SARS-CoV-2 compounds
[3] = Severe acute respiratory syndrome coronavirus 2, Vero C1008, SARS-CoV-2 CPE assay, Vero E6 cells, efficacy, read-out: CPE % Efficacy
[4] = Severe acute respiratory syndrome coronavirus 2, Vero C1008, SARS-CoV-2 CPE assay, Vero E6 cells, read-out: CPE % Efficacy
[5] = Severe acute respiratory syndrome coronavirus 2, Vero C1008, SARS-CoV-2 CPE assay, Vero E6 cells
[6] = Severe acute respiratory syndrome coronavirus 2, Vero C1008, […], DMSO 0%, no-virus control 100%, hit confirmation, read-out: CPE % efficacy
[7] = Severe acute respiratory syndrome coronavirus 2, Vero C1008, 72 h
[8] = Severe acute respiratory syndrome coronavirus 2, Vero C1008, read-out: CPE % Efficacy

`CN1CCN(CCCN2c3ccccc3Sc3ccc(S(=O)(=O)N(C)C)cc32)CC1` [Thioproperazine dimethanesulfonate] showed a pEC50 [1, 2] of 5.05, an Emax [1, 3] of 54% and a CC50 at 72 h (in vitro) of 15.8 µM. For the same molecule, the cytotoxicity at 72 h (in vitro) was 19.6%.

Work on `O=c1ccc2ccc(OCCCCN3CCN(c4cccc5sccc45)CC3)cc2[nH]1` [Brexpiprazole] yielded an Emax [1, 4] of 94.9%, a pEC50 [1, 5] of 4.85 and a CC50 (in vitro) of 11.2 µM. The cytotoxicity (in vitro) was 25.1%.

In the case of `Cc1ccc(NC(=O)c2ccc(CN3CCN(C)CC3)cc2)cc1Nc1nccc(-c2cccnc2)n1` [Imatinib, reference compound], the Emax [1, 6] was 119% and the cytotoxicity (in vitro) was under 30%.

`CCCCCOc1ccc(-c2ccc(-c3ccc(C(=O)N[C@H]4C[C@@H](O)[C@@H](O)NC(=O)[C@@H]5[C@@H](O)[C@@H](C)CN5C(=O)[C@H]([C@@H](C)O)NC(=O)[C@H]([C@H](O)[C@@H](O)c5ccc(O)cc5)NC(=O)[C@@H]5C[C@@H](O)CN5C(=O)[C@H]([C@@H](C)O)NC4=O)cc3)cc2)cc1` [Anidulafungin] ({pTerphenylCO(4''-OnC5H11)}-[Orn(4R-OH,5R-OH)]T[Hyp][hTyr(3S-OH,4S-OH)]T[Pro(3S-OH,4S-Me)]; lactam 1-C) showed a pEC50 [1, 2] of 5.16, an Emax [1, 3] of 68.4% and a CC50 (in vitro) of 8.75 µM. It also gave a cytotoxicity (in vitro) of 33.7%.

`C[C@@H](C(=O)Nc1ccc(Cl)cc1)C1CCC(c2ccnc3ccc(F)cc23)CC1` (stereo partly shown) [BMS-986205] gave an Emax [1, 4] of 69.8% and a cytotoxicity (in vitro) of 37.7%.

`CCC(=O)c1ccc2c(c1)N(CCCN(C)C)c1ccccc1S2` [Propionylpromazine hydrochloride] showed a pEC50 [1, 2] of 4.95, an Emax [1, 3] of 72.3% and a cytotoxicity at 72 h (in vitro) of 19.8%.

With `CCCC[C@@H](C=O)NC(=O)[C@H](CC(C)C)NC(=O)OCc1ccccc1` [Calpeptin, reference compound] the pEC50 [1, 7] was 6.30, the Emax [1, 6] was 112% and the cytotoxicity (in vitro) was under 30%.

In the case of `CC(=O)OC[C@]12C[C@H](OC(=O)CC(C)C)C(C)=C[C@H]1O[C@@H]1[C@H](O)[C@@H](O)[C@@]2(C)[C@]12CO2` [HT-2 Toxin], the “CPE % Efficacy” value [1] was 32.4%, the pEC50 [1] was 7.65 and the CC50 (in vitro) was 0.13 µM. The cytotoxicity (in vitro) was 98%.

Work on `Fc1ccc(C(c2ccc(F)cc2)N2CCN(C/C=C/c3ccccc3)CC2)cc1` [Flunarizine, reference compound] yielded an Emax [1, 6] of 94.1% and a cytotoxicity (in vitro) of under 30%.

Molecule `CN(C)CCC=C1c2ccccc2CCc2ccccc21` [Amitriptyline hydrochloride] has an Emax [1, 4] of 69.9%, a pEC50 [1, 5] of 4.85 and a cytotoxicity (in vitro) of 0%.

In the case of `COC(=O)[C@]1(C)CC[C@]2(C)CC[C@]3(C)C4=CC=C5C(=CC(=O)C(O)=C5C)[C@]4(C)CC[C@@]3(C)[C@@H]2C1` [Pristimerin, reference compound], the pEC50 [1, 7] was 6.96, the Emax [1, 6] was 87.4% and the CC50 (in vitro) was 1.1 µM.

In the case of `CN(C)CCC=C1c2ccccc2C=Cc2ccccc21` [Cyclobenzaprine hydrochloride], the Emax [1, 8] was 77.2%, the EC50 [1] was 12.6 µM and the cytotoxicity (in vitro) was 23.9%.

In the case of `Cn1c(NC[C@@H](N)Cc2ccccc2)nc(-c2ccncc2)c(-c2ccc3ccccc3c2)c1=O` [AMG-548], the pEC50 [1, 2] was 5.05, the Emax [1, 3] was 75% and the CC50 at 72 h (in vitro) was 17.8 µM. For the same molecule, the cytotoxicity at 72 h (in vitro) was 35.4%.

`CNCCC=C1c2ccccc2CCc2ccccc21` [Pamelor] showed an Emax [1, 8] of 103%, an EC50 [1] of 12.6 µM and a cytotoxicity (in vitro) of 0%.

Molecule `CC[C@H](CC#N)OC(=O)N[C@@H](C)c1cccc(NC(=O)Nc2ccc(-c3cnco3)c(OC)c2)c1` [AVN944] has a pEC50 [1, 2] of 4.95, an Emax [1, 3] of 95.3% and a CC50 at 72 h (in vitro) of 3.98 µM. The cytotoxicity at 72 h (in vitro) was 50.3%.

In the case of `O=C1Nc2ccc(Cl)cc2[C@@](C#CC2CC2)(C(F)(F)F)O1` [Efavirenz], the Emax [1, 4] was 90.6%, the pEC50 [1, 5] was 4.85 and the cytotoxicity (in vitro) was 24.3%.

In the case of `CCCCOc1cc(C(=O)NCCN(CC)CC)c2ccccc2n1` [Dibucaine], the Emax [1, 4] was 61.8%, the pEC50 [1, 5] was 4.90 and the cytotoxicity at 72 h (in vitro) was 0%.

`Cc1nc(Nc2ccc(F)cc2)nc(N2CCc3ccccc3C2C)c1C` (stereo not shown) [Revaprazan HCl] gave a pEC50 [1, 2] of 5.30, an Emax [1, 3] of 60.4% and a cytotoxicity at 72 h (in vitro) of 49.9%.

For `CC(CN(C)C)CN1c2ccccc2CCc2ccccc21` (stereo not shown) [Trimipramine maleate], the pEC50 [1, 2] was 5.00, the Emax [1, 3] was 51.8% and the CC50 (in vitro) was 15.8 µM. The cytotoxicity (in vitro) was 19.8%.
